In ChEMBL document CHEMBL1201862, “PubChem BioAssay data set” (2004):
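Five concentrations, 48 hours, 96-well plates. Here, GI50 denotes the concentration required for 50% inhibition of growth.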 Activity calls are given as the source filed them. Rule as the data show it: active = GI50 up to about 1.1 µM and inactive = higher. Residues, ends and D or L forms follow the SMILES beside them. *: point of attachment. Pentanoyl = CCCCC(=O)*; Boc = CC(C)(C)OC(=O)*

How the values were obtained:
Assay in all cases: NCI anticancer screen, dose series, 48 h
[1] = system: 786-0
[2] = system: A498
[3] = system: BT-549
[4] = system: EKVX
[5] = system: HOP-62
[6] = system: HOP-92
[7] = system: K562
[8] = system: KM12
[9] = system: M14
[10] = system: NCI-H226
[11] = system: NCI-H460
[12] = system: OVCAR-4
[13] = system: OVCAR-5
[14] = system: SK-MEL-2
[15] = system: SNB-19
[16] = system: SW-620
[17] = system: UACC-62
[18] = system: UO-31
[19] = system: SF-539

Measured: GI50

O=[N+]([O-])c1cccc(CSc2nc(O)c3nc[nH]c3n2)c1
inactive: [1] > 100 µM | [2] > 100 µM | [3] > 100 µM | [4] > 100 µM | [5] > 100 µM | [6] > 100 µM | [7] 78.2 µM | [8] > 100 µM | [9] > 100 µM | [10] 79.8 µM | [11] > 100 µM | [12] > 100 µM | [13] > 100 µM | [14] > 100 µM | [15] > 100 µM | [16] > 100 µM | [17] 50.1 µM | [18] > 100 µM

CCN(CC)c1ccc2cc(C(=O)Nc3ccccn3)c(=N)oc2c1
inactive: [1] 35.3 µM | [2] > 100 µM | [3] > 100 µM | [4] > 100 µM | [5] 22.9 µM | [6] > 100 µM | [7] > 100 µM | [8] > 100 µM | [9] > 100 µM | [10] > 100 µM | [11] > 100 µM | [12] > 100 µM | [13] 80.2 µM | [19] 43.5 µM | [14] 25.5 µM | [15] 19.1 µM | [16] > 100 µM | [17] 30.3 µM

O=C(O)[C@H](CCC[C@H]1C(=O)O[C@H](c2ccccc2)[C@H](c2ccccc2)N1C(=O)OCc1ccccc1)N[C@@H](c1ccccc1)[C@H](O)c1ccccc1
inactive: [1] 32.5 µM | [2] 28 µM | [3] 27 µM | [4] 38.6 µM | [5] 19 µM | [6] 22.3 µM | [7] 36.8 µM | [8] 19.7 µM | [9] > 100 µM | [11] 34.5 µM | [12] 32.2 µM | [13] 38.4 µM | [19] 18.6 µM | [14] 20 µM | [15] 30.3 µM | [16] 25.1 µM | [17] 22.1 µM | [18] > 100 µM

COc1cc2c(cc1OC)[C@@](C)(C(O)C(O)C(C)(C)O)NCC2 (stereo partly drawn)
inactive: [1] > 100 µM | [2] > 100 µM | [3] > 100 µM | [4] > 100 µM | [5] > 100 µM | [6] > 100 µM | [7] > 100 µM | [9] > 100 µM | [10] > 100 µM | [12] > 100 µM | [13] > 100 µM | [19] > 100 µM | [14] > 100 µM | [15] > 100 µM | [17] > 100 µM | [18] > 100 µM

C(=N\c1ccc(-c2nc3ccccc3[nH]2)cc1)/c1ccco1
inactive: [1] > 100 µM | [2] > 100 µM | [3] > 100 µM | [4] > 100 µM | [5] > 100 µM | [6] 44.1 µM | [7] 37.6 µM | [8] 48.6 µM | [9] > 100 µM | [10] > 100 µM | [12] 70 µM | [13] > 100 µM | [19] 77.8 µM | [14] 67.8 µM | [16] 89.1 µM | [17] 89.7 µM | [18] 75.7 µM

COc1cccc(C23CCN(C)C(CC(O)C2)C3)c1OC (stereo not drawn)
inactive: [1] > 100 µM | [2] > 100 µM | [3] > 100 µM | [4] > 100 µM | [5] > 100 µM | [6] > 100 µM | [7] > 100 µM | [8] > 100 µM | [9] > 100 µM | [10] > 100 µM | [12] > 100 µM | [13] > 100 µM | [19] > 100 µM | [14] > 100 µM | [15] > 100 µM | [16] > 100 µM | [17] > 100 µM | [18] > 100 µM

CC1(C)CC[C@]2(C(=O)O)[C@H](O)C[C@]3(C)C(=CC[C@@H]4[C@@]5(C)CC[C@H](OC6OC(C(=O)O)C(O)C(O)C6O)C(C)(C)[C@@H]5CC[C@]43C)[C@@H]2C1 (stereo partly drawn)
inactive: [1] > 100 µM | [2] 22.2 µM | [3] 18.5 µM | [4] 78.3 µM | [5] > 100 µM | [6] 20.3 µM | [7] 95.9 µM | [8] 56.2 µM | [9] > 100 µM | [10] > 100 µM | [11] > 100 µM | [12] 22.3 µM | [13] > 100 µM | [14] > 100 µM | [15] 52.7 µM | [16] > 100 µM | [17] 23.6 µM | [18] 17.4 µM

CC(O)CN1c2ccccc2Sc2ccccc21 (stereo not drawn)
inactive: [1] > 100 µM | [2] > 100 µM | [3] > 100 µM | [4] > 100 µM | [5] > 100 µM | [6] > 100 µM | [7] > 100 µM | [8] > 100 µM | [9] > 100 µM | [10] > 100 µM | [11] > 100 µM | [12] > 100 µM | [13] > 100 µM | [19] > 100 µM | [15] > 100 µM | [16] > 100 µM | [17] > 100 µM | [18] > 100 µM

Cc1ccc(-c2cc(-c3ccccc3)nc(N)n2)c(O)c1
inactive: [1] > 58.1 µM | [2] > 90.6 µM | [3] > 100 µM | [5] 27.6 µM | [6] > 64.1 µM | [7] 2.09 µM | [8] 7.46 µM | [9] > 100 µM | [11] > 27 µM | [12] > 100 µM | [13] > 100 µM | [19] > 60.7 µM | [14] > 28.9 µM | [15] 32.4 µM | [16] > 22.7 µM | [17] > 78.2 µM | [18] > 100 µM

Nc1cc([N+](=O)[O-])ccc1C(=O)N1CCC[C@H]1CO
inactive: [1] > 100 µM | [2] > 100 µM | [3] > 100 µM | [4] > 100 µM | [6] > 100 µM | [7] > 100 µM | [8] > 100 µM | [10] > 100 µM | [11] > 100 µM | [12] > 100 µM | [19] > 100 µM | [14] > 100 µM | [15] > 100 µM | [16] > 100 µM | [17] > 100 µM | [18] > 100 µM

COC(=O)n1c(=O)nc2c3c(ncn21)Oc1c(c(-c2ccccc2)nn1-c1ccccc1)C3c1ccc(Cl)cc1 (stereo not drawn)
inactive: [1] 1.49 µM | [2] 2.03 µM | [3] 3.87 µM | [5] 1.72 µM | [6] 1.71 µM | [7] 1.62 µM | [8] 1.37 µM | [9] 1.44 µM | [10] 1.58 µM | [11] 1.65 µM | [12] 2.39 µM | [13] 1.32 µM | [19] 1.76 µM | [14] 1.7 µM | [15] 1.75 µM | [16] 1.69 µM | [17] 1.95 µM | [18] 1.68 µM

COc1cc2c(cc1C)NC(=O)/C2=C\c1cccnc1
inactive: [1] 25 µM | [2] 10.3 µM | [3] 21.9 µM | [4] 19.8 µM | [5] 22.4 µM | [6] 25.1 µM | [7] 9.4 µM | [8] 13.6 µM | [9] 12.9 µM | [11] 22.6 µM | [12] 18.7 µM | [13] 17.6 µM | [19] 20.4 µM | [14] 18.7 µM | [15] 12.6 µM | [16] 26.8 µM | [18] 15.6 µM

C=C(C)C1CC/C(C)=C/CC[C@]2(C)O[C@H]2CC/C(COC(C)=O)=C\[C@@H]1O (stereo partly drawn)
inactive: [1] > 50 µM | [2] > 50 µM | [3] > 50 µM | [4] > 50 µM | [5] 28.8 µM | [6] > 50 µM | [7] 11.1 µM | [8] > 50 µM | [10] > 50 µM | [11] 25.1 µM | [12] > 50 µM | [13] > 50 µM | [19] > 50 µM | [14] > 50 µM | [15] > 50 µM | [16] > 50 µM | [17] > 50 µM | [18] > 50 µM

CCN(CC)CCC(=O)c1ccc(C)cc1
inactive: [1] 17.7 µM | [2] 16.4 µM | [3] 22.4 µM | [4] 31.3 µM | [5] > 100 µM | [6] 18.2 µM | [7] 14.9 µM | [8] > 10 µM | [9] 19.1 µM | [10] 28.6 µM | [11] > 100 µM | [12] 23.5 µM | [13] 17.3 µM | [19] 88.3 µM | [15] > 100 µM | [16] 17 µM | [17] 28.4 µM | [18] 23 µM

CCCCC(=O)Oc1ccc(CC(NC(=O)OC(C)(C)C)C(=O)NC(C)C(=O)NC(Cc2ccccc2)C(=O)NCC(N)=O)cc1 (stereo not drawn) (Boc-Y(Pentanoyl)AFG-NH2; configuration not given here)
inactive: [1] 43.6 µM | [2] > 100 µM | [3] 23.7 µM | [5] 17.3 µM | [6] 16.2 µM | [7] 46.3 µM | [8] 23.7 µM | [9] 36.7 µM | [10] > 100 µM | [11] 31.7 µM | [12] 74.1 µM | [13] 21.9 µM | [19] 33.3 µM | [14] 20.7 µM | [15] 23.3 µM | [16] 44.8 µM | [17] 20.5 µM | [18] > 100 µM
